From US11053251B2, “GPR35 modulators” (Prometheus Biosciences, Inc., priority 2019, dated 2021)

Columns and labels:
Human GPR35 [1] = target: Human GPR35 (Homo sapiens, UniProt Q9HC97); assay: Beta-Arrestin Assay (Tango U2OS cells, LiveBLAzer-FRET B/G); format: cell-based; conditions: Human GPR35 expressing Tango U2OS cells, 5 hours treatment
Procedure: Human GPR35 expressing Tango U2OS cells were plated in 384-well format in clear bottom plates at a cell density of 10,000 cells/well and allowed to grow overnight. The next day, cells were treated with serially diluted test compounds for 5 hours. LiveBLAzer-FRET B/G (CCF4-AM) detection reagents were then added and cells were allowed to incubate for 2 hours before reading plates on a BioTek Cytation 5 plate reader. Zaprinast was used as a positive control for dose-response curves. In order to determine EC50 values, data were fit to a four-parameter dose-response curve.

Human GPR35 [2] = target: Human GPR35 (Homo sapiens, UniProt Q9HC97, S294R); assay: Alternative Beta-Arrestin Assay (JumpIn 294R Tango U2OS cells, LiveBLAzer-FRET B/G); format: cell-based; conditions: Human GPR35 expressing JumpIn 294R Tango U2OS cells, 5 hours treatment
Human GPR35 (Homo sapiens, UniProt Q9HC97, S294R), sequence (Q9HC97 whole entry S294R): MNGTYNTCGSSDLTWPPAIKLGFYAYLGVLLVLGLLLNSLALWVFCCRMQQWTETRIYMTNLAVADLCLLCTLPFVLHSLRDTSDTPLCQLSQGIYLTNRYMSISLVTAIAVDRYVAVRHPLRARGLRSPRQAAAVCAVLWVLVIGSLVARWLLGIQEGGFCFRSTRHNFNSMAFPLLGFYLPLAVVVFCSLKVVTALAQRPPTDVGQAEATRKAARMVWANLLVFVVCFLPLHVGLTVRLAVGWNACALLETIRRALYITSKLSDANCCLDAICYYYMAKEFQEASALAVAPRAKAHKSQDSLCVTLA
In short: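 Beta-arrestin recruitment measured as FRET ratio change using CCF4-AM loading for 2 h, following 5-hour compound treatment of GPR35 (S294R) JumpIn Tango U2OS cells. Zaprinast served as positive control; EC50 values from four-parameter dose-response fits.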

Human GPR35 (Homo sapiens, UniProt Q9HC97), sequence (Q9HC97 whole entry): as the sequence (Q9HC97 whole entry S294R) above, with R294S counted along it

CCOc1cc(-c2ccccc2)ccc1-c1nc2[nH]nnc2c(=O)[nH]1 [Compound 101, 5-(3-Ethoxy-[1,1′-biphenyl]-4-yl)-3,6-dihydro-7H-[1,2,3]triazolo[4,5-d]pyrimidin-7-one]
EC50 (Human GPR35 [1]): ≤ 10 µM
EC50 (Human GPR35 [2]): ≤ 10 µM

CCOc1cc(-c2cc(N)cc(C(=O)OC)c2)ccc1-c1nc2[nH]nnc2c(=O)[nH]1 [Compound 122, Methyl 5-amino-3′-ethoxy-4′-(7-oxo-6,7-dihydro-3H-[1,2,3]triazolo[4,5-d]pyrimidin-5-yl)-[1,1′-biphenyl]-3-carboxylate]
EC50 (Human GPR35 [1]): ≤ 10 µM
EC50 (Human GPR35 [2]): ≤ 10 µM

CCOc1cc(C(=O)O)ccc1-c1nc2[nH]nnc2c(=O)[nH]1 [Compound 132, 3-Ethoxy-4-(7-oxo-6,7-dihydro-3H-[1,2,3]triazolo[4,5-d]pyrimidin-5-yl)benzoic acid]
EC50 (Human GPR35 [1]): ≤ 10 µM
EC50 (Human GPR35 [2]): ≤ 10 µM

CCOc1cc(C(=O)NS(=O)(=O)N(C)C)ccc1-c1nc2[nH]nnc2c(=O)[nH]1 [Compound 152, N-(N,N-dimethylsulfamoyl)-3-ethoxy-4-(7-oxo-6,7-dihydro-3H-[1,2,3]triazolo[4,5-d]pyrimidin-5-yl)benzamide]
EC50 (Human GPR35 [1]): ≤ 10 µM
EC50 (Human GPR35 [2]): ≤ 10 µM

CCOc1cc(-c2cccc(C(=O)O)c2C)ccc1-c1nc2[nH]nnc2c(=O)[nH]1 [Compound 154, 3′-ethoxy-2-methyl-4′-(7-oxo-6,7-dihydro-3H-[1,2,3]triazolo[4,5-d]pyrimidin-5-yl)-[1,1′-biphenyl]-3-carboxylic acid]
EC50 (Human GPR35 [1]): ≤ 10 µM
EC50 (Human GPR35 [2]): ≤ 10 µM

CCOc1cc(-c2ccc(C(=O)O)cc2)ccc1-c1nc2[nH]nnc2c(=O)[nH]1 [Compound 111, 3′-Ethoxy-4′-(7-oxo-6,7-dihydro-3H-[1,2,3]triazolo[4,5-d]pyrimidin-5-yl)-[1,1′-biphenyl]-4-carboxylic acid]
EC50 (Human GPR35 [1]): ≤ 10 µM
EC50 (Human GPR35 [2]): ≤ 10 µM

CCOc1cc(-c2ccccc2CC(=O)O)ccc1-c1nc2[nH]nnc2c(=O)[nH]1 [Compound 119, 2-(3′-Ethoxy-4′-(7-oxo-6,7-dihydro-3H-[1,2,3]triazolo[4,5-d]pyrimidin-5-yl)-[1,1′-biphenyl]-2-yl)acetic acid]
EC50 (Human GPR35 [1]): ≤ 10 µM
EC50 (Human GPR35 [2]): ≤ 10 µM

CCOc1cc(NCCCC(=O)O)ccc1-c1nc2[nH]nnc2c(=O)[nH]1 [Compound 164, 4-((3-ethoxy-4-(7-oxo-6,7-dihydro-3H-[1,2,3]triazolo[4,5-d]pyrimidin-5-yl)phenyl)amino)butanoic acid]
EC50 (Human GPR35 [1]): ≤ 10 µM
EC50 (Human GPR35 [2]): ≤ 10 µM

CCOc1cc(C(=O)Nc2cccnc2)ccc1-c1nc2[nH]nnc2c(=O)[nH]1 [Compound 141, 3-ethoxy-4-(7-oxo-6,7-dihydro-3H-[1,2,3]triazolo[4,5-d]pyrimidin-5-yl)-N-(pyridin-3-yl)benzamide]
EC50 (Human GPR35 [1]): ≤ 10 µM
EC50 (Human GPR35 [2]): ≤ 10 µM

CCCOc1cc(-c2cccc(C(=O)O)c2)ccc1-c1nc2[nH]nnc2c(=O)[nH]1 [Compound 128, 4′-(7-Oxo-6,7-dihydro-3H-[1,2,3]triazolo[4,5-d]pyrimidin-5-yl)-3′-propoxy-[1,1′-biphenyl]-3-carboxylic acid]
EC50 (Human GPR35 [1]): ≤ 10 µM
EC50 (Human GPR35 [2]): ≤ 10 µM

CCOC(=O)Cn1cc(-c2ccc(-c3nc4[nH]nnc4c(=O)[nH]3)c(OCC)c2)cn1 [Compound 126, Ethyl 2-(4-(3-ethoxy-4-(7-oxo-6,7-dihydro-3H-[1,2,3]triazolo[4,5-d]pyrimidin-5-yl)phenyl)-1H-pyrazol-1-yl)acetate]
EC50 (Human GPR35 [1]): ≤ 10 µM
EC50 (Human GPR35 [2]): ≤ 10 µM

CCOc1cc(-c2ccc(Cl)c(C(=O)O)c2)ccc1-c1nc2[nH]nnc2c(=O)[nH]1 [Compound 180, 4-chloro-3′-ethoxy-4′-(7-oxo-6,7-dihydro-3H-[1,2,3]triazolo[4,5-d]pyrimidin-5-yl)-[1,1′-biphenyl]-3-carboxylic acid]
EC50 (Human GPR35 [1]): ≤ 10 µM
EC50 (Human GPR35 [2]): ≤ 10 µM

CCOc1cc(-c2noc(=O)[nH]2)ccc1-c1nc2[nH]nnc2c(=O)[nH]1 [Compound 150, 3-(3-ethoxy-4-(7-oxo-6,7-dihydro-3H-[1,2,3]triazolo[4,5-d]pyrimidin-5-yl)phenyl)-1,2,4-oxadiazol-5(4H)-one]
EC50 (Human GPR35 [1]): ≤ 10 µM
EC50 (Human GPR35 [2]): ≤ 10 µM

CCOc1cc(-c2ccc(F)c(C(=O)O)c2)ccc1-c1nc2[nH]nnc2c(=O)[nH]1 [Compound 183, 3′-ethoxy-4-fluoro-4′-(7-oxo-6,7-dihydro-3H-[1,2,3]triazolo[4,5-d]pyrimidin-5-yl)-[1,1′-biphenyl]-3-carboxylic acid]
EC50 (Human GPR35 [1]): ≤ 10 µM
EC50 (Human GPR35 [2]): ≤ 10 µM

O=C(O)c1ccc(-c2nc3[nH]nnc3c(=O)[nH]2)cc1 [Compound 144, 4-(7-oxo-6,7-dihydro-3H-[1,2,3]triazolo[4,5-d]pyrimidin-5-yl)benzoic acid]
EC50 (Human GPR35 [1]): ≤ 10 µM
EC50 (Human GPR35 [2]): ≤ 10 µM

CCOc1cc(N2CCC[C@H]2C(=O)O)ccc1-c1nc2[nH]nnc2c(=O)[nH]1 [Compound 162, (3-ethoxy-4-(7-oxo-6,7-dihydro-3H-[1,2,3]triazolo[4,5-d]pyrimidin-5-yl)phenyl)-L-proline]
EC50 (Human GPR35 [1]): ≤ 10 µM
EC50 (Human GPR35 [2]): 10 to 50 µM

CCOc1cc(-c2cccc(C(N)=O)c2)ccc1-c1nc2[nH]nnc2c(=O)[nH]1 [Compound 156, 3′-ethoxy-4′-(7-oxo-6,7-dihydro-3H-[1,2,3]triazolo[4,5-d]pyrimidin-5-yl)-[1,1′-biphenyl]-3-carboxamide]
EC50 (Human GPR35 [1]): ≤ 10 µM
EC50 (Human GPR35 [2]): ≤ 10 µM

CCOc1cc(C(=O)Nc2ccccc2)ccc1-c1nc2[nH]nnc2c(=O)[nH]1 [Compound 134, 3-Ethoxy-4-(7-oxo-6,7-dihydro-3H-[1,2,3]triazolo[4,5-d]pyrimidin-5-yl)-N-phenylbenzamide]
EC50 (Human GPR35 [1]): ≤ 10 µM
EC50 (Human GPR35 [2]): ≤ 10 µM

CCOc1cc(-c2cncc(C(=O)OC)c2)ccc1-c1nc2[nH]nnc2c(=O)[nH]1 [Compound 112, Methyl 5-(3-ethoxy-4-(7-oxo-6,7-dihydro-3H-[1,2,3]triazolo[4,5-d]pyrimidin-5-yl)phenyl)nicotinate]
EC50 (Human GPR35 [1]): ≤ 10 µM
EC50 (Human GPR35 [2]): ≤ 10 µM

CCOc1cc(Cc2ccc(C(=O)O)cc2)ccc1-c1nc2[nH]nnc2c(=O)[nH]1 [Compound 177, 4-(3-ethoxy-4-(7-oxo-6,7-dihydro-3H-[1,2,3]triazolo[4,5-d]pyrimidin-5-yl)benzyl)benzoic acid]
EC50 (Human GPR35 [1]): ≤ 10 µM
EC50 (Human GPR35 [2]): ≤ 10 µM

CCOc1cc(Cc2cccc(C(=O)O)c2)ccc1-c1nc2[nH]nnc2c(=O)[nH]1 [Compound 176, 3-(3-ethoxy-4-(7-oxo-6,7-dihydro-3H-[1,2,3]triazolo[4,5-d]pyrimidin-5-yl)benzyl)benzoic acid]
EC50 (Human GPR35 [1]): ≤ 10 µM
EC50 (Human GPR35 [2]): ≤ 10 µM

CCOc1cc(-c2cccc(C(=O)OC)c2)ccc1-c1nc2[nH]nnc2c(=O)[nH]1 [Compound 107, Methyl 3′-ethoxy-4′-(7-oxo-6,7-dihydro-3H-[1,2,3]triazolo[4,5-d]pyrimidin-5-yl)-[1,1′-biphenyl]-3-carboxylate]
EC50 (Human GPR35 [1]): ≤ 10 µM
EC50 (Human GPR35 [2]): ≤ 10 µM

CCOc1cc(C2CC2)ccc1-c1nc2[nH]nnc2c(=O)[nH]1 [Compound 130, 5-(4-cyclopropyl-2-ethoxyphenyl)-3,6-dihydro-7H-[1,2,3]triazolo[4,5-d]pyrimidin-7-one]
EC50 (Human GPR35 [1]): ≤ 10 µM
EC50 (Human GPR35 [2]): ≤ 10 µM

CCOc1cc(C#N)ccc1-c1nc2[nH]nnc2c(=O)[nH]1 [Compound 142, 3-ethoxy-4-(7-oxo-6,7-dihydro-3H-[1,2,3]triazolo[4,5-d]pyrimidin-5-yl)benzonitrile]
EC50 (Human GPR35 [1]): ≤ 10 µM
EC50 (Human GPR35 [2]): ≤ 10 µM

O=c1[nH]c(-c2ccc(CO)cc2)nc2[nH]nnc12 [Compound 148, 5-(4-(hydroxymethyl)phenyl)-3,6-dihydro-7H-[1,2,3]triazolo[4,5-d]pyrimidin-7-one]
EC50 (Human GPR35 [1]): > 10 µM
EC50 (Human GPR35 [2]): > 50 µM

CCOc1cc(-c2ccc(C(=O)OC)s2)ccc1-c1nc2[nH]nnc2c(=O)[nH]1 [Compound 116, Methyl 5-(3-ethoxy-4-(7-oxo-6,7-dihydro-3H-[1,2,3]triazolo[4,5-d]pyrimidin-5-yl)phenyl)thiophene-2-carboxylate]
EC50 (Human GPR35 [1]): ≤ 10 µM
EC50 (Human GPR35 [2]): ≤ 10 µM

CCOc1cc(NCCC(=O)O)ccc1-c1nc2[nH]nnc2c(=O)[nH]1 [Compound 168, 3-((3-ethoxy-4-(7-oxo-6,7-dihydro-3H-[1,2,3]triazolo[4,5-d]pyrimidin-5-yl)phenyl)amino)propanoic acid]
EC50 (Human GPR35 [1]): ≤ 10 µM
EC50 (Human GPR35 [2]): ≤ 10 µM

CCOc1cc(-c2cc(N)cc(C(=O)O)c2)ccc1-c1nc2[nH]nnc2c(=O)[nH]1 [Compound 123, 5-amino-3′-ethoxy-4′-(7-oxo-6,7-dihydro-3H-[1,2,3]triazolo[4,5-d]pyrimidin-5-yl)-[1,1′-biphenyl]-3-carboxylic acid]
EC50 (Human GPR35 [1]): ≤ 10 µM
EC50 (Human GPR35 [2]): ≤ 10 µM

CCOc1cc(-c2cc(C(=O)O)cc(C(=O)O)c2)ccc1-c1nc2[nH]nnc2c(=O)[nH]1 [Compound 157, 3′-ethoxy-4′-(7-oxo-6,7-dihydro-3H-[1,2,3]triazolo[4,5-d]pyrimidin-5-yl)-[1,1′-biphenyl]-3,5-dicarboxylic acid]
EC50 (Human GPR35 [1]): ≤ 10 µM
EC50 (Human GPR35 [2]): ≤ 10 µM

CCOc1cc(N2CCC[C@@H]2C(=O)O)ccc1-c1nc2[nH]nnc2c(=O)[nH]1 [Compound 163, (3-ethoxy-4-(7-oxo-6,7-dihydro-3H-[1,2,3]triazolo[4,5-d]pyrimidin-5-yl)phenyl)-D-proline]
EC50 (Human GPR35 [1]): ≤ 10 µM
EC50 (Human GPR35 [2]): ≤ 10 µM

CCOc1cc(C(=O)N2CCCC2)ccc1-c1nc2[nH]nnc2c(=O)[nH]1 [Compound 133, 5-(2-Ethoxy-4-(pyrrolidine-1-carbonyl)phenyl)-3,6-dihydro-7H-[1,2,3]triazolo[4,5-d]pyrimidin-7-one]
EC50 (Human GPR35 [1]): ≤ 10 µM
EC50 (Human GPR35 [2]): 10 to 50 µM
